Cytotoxicity data for 104 compounds are collected here from ChEMBL document CHEMBL3507680, “University of Dundee, Gates Library screen for HepG2 cell viability”.

A short description of this data set: Human HepG2 cell viability assay in 384 well format. Format: toxicity, cell-based. The arrangement: dose 125 nL, time 70.5 hour; cytotoxicity at 70.5 h: concentration not given beside the values. To be noted: HepG2 cells, read-out: Inhibition.
`CN(CC1CCOC1)c1ncc(Br)cn1` (centres undefined): the cytotoxicity at 70.5 h was -3.89%. Then `CCN(CC)C(=O)CSc1ncc[nH]1`, with -8.92%; and `Cc1cc(Br)cnc1N(C)CC1CCOC1` (centres undefined), with -3.38%; and `CCOc1nnc(CN(CC)CC(=O)NC(C)C)s1`, with -1.99%. Then `CN1CCN(C)c2cc(NC(=O)c3cc[nH]n3)ccc2C1`, with 6.77%; and `COc1ccc(C(C)NCc2cscn2)cc1Cn1cccn1` (centres undefined), with -7.35%; and `CC(C)(C)c1nc(CN(Cc2ccccc2F)C2CCCCC2)no1`, with -8.5%. As to `CC(O)CNC(=O)Nc1ccc(Br)cc1Br` (centres undefined), the cytotoxicity at 70.5 h was -3.83%.

Turning to `NC(=O)c1cccc(CS(=O)(=O)CC(O)Cn2cccn2)c1` (centres undefined), the cytotoxicity at 70.5 h was -4.59%.

`Cc1ccc(S(=O)(=O)Nc2ccc(N3CCSCC3)c(C(=O)O)c2)s1`: the cytotoxicity at 70.5 h is -10.2%. To `O=S(=O)(Cc1cccc(Cl)c1)CC(O)Cn1cccn1` (centres undefined) belongs -5.5%; to `CC1(C)COCCN1C(=O)c1ccc(Cn2cncn2)cc1`, -9.35%.

As to `CC(C)c1nnc(NC(=O)C2CSCN2C(=O)C2CCC2)s1` (centres undefined), the cytotoxicity at 70.5 h was -8.18%. Then `COc1ccccc1Cc1nnc(SCCS(C)(=O)=O)o1`, with -7.42%; and `Cc1nnc(NC(=O)C2CSCN2C(=O)C2CCCC2)s1` (centres undefined), with -3.18%. As for `C[S+]([O-])CCNC(=O)N1CCSC(C)(C)C1` (centres undefined), the cytotoxicity at 70.5 h was -1.1%. Then `CCc1cc2c(N3CCCC(c4cc(C(N)=O)[nH]n4)C3)ncnc2s1` (centres undefined), with -4.85%.

Regarding `O=C(COc1ccccc1Br)N1CCOc2ccncc21`, the cytotoxicity at 70.5 h was -3.18%. As to `CC(=O)NCCNC(=O)Nc1ccc(Br)cc1C(C)C`, the cytotoxicity at 70.5 h was found to be 15.2%.

Consider `CC(=O)Nc1cc(C(C)(C)C)sc1C#N`, for which the cytotoxicity at 70.5 h is -3.4%.

In the case of `Cc1cnn(CC(C)NCc2cccnc2)c1` (centres undefined), the cytotoxicity at 70.5 h is -5.07%. To `CN1CCOC(CNCC(=O)NCCCc2ccccc2)C1` (centres undefined) belongs 4.87%. Then `CN(CC(=O)NCC1CCCCC1)S(=O)(=O)c1cccnc1`, with -3.39%; and `Cc1cc(C(=O)NC2CCN(c3nnc(C)c(C)c3C#N)CC2)no1`, with -6.5%; and `Cc1nccc(CNC(=O)NCCC(=O)N2CCCc3ccccc32)n1`, with -2.13%. Consider `Cc1cc(C(=O)NCCC(=O)N2CCCc3ccccc32)no1`, for which the cytotoxicity at 70.5 h is -4.18%. On to `COc1cc(CNC(=O)COC2CCCCC2)ccc1O`, for which the cytotoxicity at 70.5 h was -4.46%. Then `CCc1ccc(C(=O)N2CCCCC2CNS(C)(=O)=O)o1` (centres undefined), with -2.32%.

As to `CN1N=C(C(=O)NCCc2ccc(OC3CCCC3)cc2)CCC1=O`, the cytotoxicity at 70.5 h was determined as 1.04%. To `Cn1cc(C(=O)NCc2ccc(OC3CCCCC3)nc2)ccc1=O` belongs -7.34%; to `COc1ccccc1CN(C)C(=O)C[S+]([O-])Cc1cc(C)on1` (centres undefined), -1.97%; to `Cc1nnc(NC(=O)NCCN(C(=O)OC(C)(C)C)C2CC2)s1`, -4.34%.

As to `Cn1cc(C(=O)NCCc2ccc(OC3CCCC3)cc2)ccc1=O`, the cytotoxicity at 70.5 h was found to be 1.62%. Consider `CC1CCN(Cc2ccccc2CNC(=O)C2CNC(=O)N2)CC1` (centres undefined), for which the cytotoxicity at 70.5 h is -4.5%. With `COc1ccc(CN2CC(n3cccn3)C2)cc1F`, the cytotoxicity at 70.5 h was -2.24%.

For `COc1ccccc1CCNC(=O)CNCC1CN(C)CCO1` (centres undefined), the cytotoxicity at 70.5 h was -3.47%. To `Cc1cc(CNC(=O)NCCCC(=O)N2CCc3ccccc32)no1` belongs -2.16%; to `Cc1cc(C(=O)Nc2ccc(OCCN3CCN(C)CC3)cc2)[nH]n1`, 0.21%; to `COc1ccc(CN(C)C(=O)CN2CC(n3cc(C)cn3)C2)cc1F`, -2.77%. Then `CN(CCc1ccccn1)C(=O)Cn1cc(-c2ccccc2)nn1`, with -3.22%; and `CC(C)c1nn(C)c(N(C)C)c1CNCc1ccnc(N(C)C)c1`, with -0.315%. In the case of `Cc1nsc(N2CCCN(C(=O)CCc3ccsc3)CC2)n1`, the cytotoxicity at 70.5 h was -2%.

Regarding `COc1ccc(CCC(=O)N2CCN(c3nc(C)ns3)CC2)cc1`, the cytotoxicity at 70.5 h is -0.82%.

`CCc1noc(CN2CCN(C(=O)OC(C)(C)C)C(C)C2)n1` (centres undefined): the cytotoxicity at 70.5 h worked out at 2.89%. As for `CN1CCOC(CNCC(=O)NCCc2ccc(F)cc2)C1` (centres undefined), the cytotoxicity at 70.5 h is -3.15%.

With `CNC(=O)c1cccc(CN2CCC(N(C)Cc3noc(C)n3)C2)c1` (centres undefined), the cytotoxicity at 70.5 h is -4.76%.

With `CCc1ccc(C(C)NCc2nccn2Cc2ccccc2)o1` (centres undefined), the cytotoxicity at 70.5 h was -9.96%.

Turning to `COCCCn1ccc(NC2CCSCC2)n1`, the cytotoxicity at 70.5 h is -8.74%. `CC(C)(C)C(=O)NCCCc1nc2ccccc2[nH]1`: the cytotoxicity at 70.5 h is -11.6%. Then `O=C(NCCNc1ncccn1)NCCc1c(F)cccc1F`, with -13.1%; and `O=C(NCCNc1ncccn1)c1ccc(OCc2ccccc2)nc1`, with -13.5%. To `Cc1cc(CNC(=O)Nc2ccc(C(=O)NC3CC3)cc2)no1` belongs -14.3%; to `COC(=O)CCNC(=O)c1ccc(OCc2ccccc2)nc1`, -6.92%; to `Cc1nnc(CSc2n[nH]c(-c3ccccn3)n2)o1`, -7.45%. Consider `N#CC1COCCN1S(=O)(=O)c1ccc2ccccc2c1` (centres undefined), for which the cytotoxicity at 70.5 h was -1.81%. Turning to `Cn1ncc2c(=O)[nH]c(N3CCCC3c3cccc(Cl)c3)nc21` (centres undefined), the cytotoxicity at 70.5 h was -1.55%.

Turning to `CC(C)NC(=O)NC(C)c1ccc(-c2ccncc2)cc1` (centres undefined), the cytotoxicity at 70.5 h was -7.15%. With `Cc1cscc1C(=O)Nc1cncnc1N(C)C`, the cytotoxicity at 70.5 h was -7.99%. Then `N#Cc1cccc(S(=O)(=O)N(CC2CCC2)c2cn[nH]c2)c1`, with -8.03%; and `CCc1nc(CC)n(CC(=O)N(CC)CC)n1`, with -8.83%. Consider `CC1CN(C(=O)c2sccc2Br)CCO1` (centres undefined), for which the cytotoxicity at 70.5 h was -10.9%. Then `Cc1ccc2c(c1)C(NCc1ccccn1)CC2` (centres undefined), with -12.6%; and `CNC(=O)c1cccc(CN2CCC(N(C)Cc3nnc(C)o3)C2)c1` (centres undefined), with -6.28%; and `CN(CC(N)=O)Cc1c(Cl)ccc2cccnc12`, with -2.22%. With `O=C1CCCN1CCCN1CCCC(Cn2cncn2)C1` (centres undefined), the cytotoxicity at 70.5 h came out at 3.37%.

Take `O=C1OCCC1N1CCN(c2ccccn2)CC1` (centres undefined): the cytotoxicity at 70.5 h was -15.5%.

With `CN(Cc1ccc(F)c2cccnc12)C1CCS(=O)(=O)C1` (centres undefined), the cytotoxicity at 70.5 h is -9.82%. For the compound `Cc1nnc2ccc(N3CCN(Cc4nccn4C)CC3)nn12`, the cytotoxicity at 70.5 h was found to be 5.33%. To `Cc1cc(S(C)(=O)=O)c(C)c(S(=O)(=O)NCC2CCCO2)c1` (centres undefined) belongs -16.8%; to `O=C1CCCN1CCN1CCCCC1Cn1cccn1` (centres undefined), -10.6%; to `CN(CCC#N)C(=O)CN1CCCN(Cc2noc(C3CC3)n2)CC1`, -0.995%. To `NC(=O)c1cncc(N2CCN(Cc3ccc(F)cc3Cl)CC2)n1` belongs -3.73%; to `COC(=O)c1cccc(CNC(=O)NCCC(F)(F)F)c1`, 1.57%.

`Cc1ncc(CNC(=O)N(C)Cc2ccc([S+](C)[O-])cc2)s1` (centres undefined): the cytotoxicity at 70.5 h was -4.15%. Turning to `Cc1n[nH]cc1CNC(=O)Nc1cccc(OCC(F)(F)F)c1`, the cytotoxicity at 70.5 h was -6.62%. `CCOc1ccc(Cl)c(C(=O)NC(C)C(N)=O)n1` (centres undefined): the cytotoxicity at 70.5 h was -5.7%.

Turning to `O=C(c1ccccc1)N1CCN(C2CCc3ccc(F)cc32)CC1` (centres undefined), the cytotoxicity at 70.5 h was -9.61%. Then `Cc1nn(C)c(N2CCOCC2)c1CNCC1CCCN1C` (centres undefined), with -5.73%; and `Cc1nn(C)c(N2CCOCC2)c1CNC1CCS(=O)(=O)C1` (centres undefined), with -6.08%; and `CS(=O)(=O)NCCC(=O)NC1(c2ccc(F)cc2)CCCC1`, with -6.92%.

For the compound `CC(C)c1cc(C(=O)NCc2nc(-c3ccc(F)cc3)n[nH]2)n[nH]1`, the cytotoxicity at 70.5 h came to 12.6%. To `Cc1nn(C)c(NC(=O)C2SCCc3ccccc32)c1C` (centres undefined) belongs 0.91%; to `CCc1ccc(C2COCCN2C(=O)NCc2cccc(C#N)c2)o1` (centres undefined), -9.17%.

For the compound `Cc1nc(C)c(C)c(N2CCC3(CCOC3)C2)n1` (centres undefined), the cytotoxicity at 70.5 h was 17%. Take `c1cc(-c2noc(-c3cc(C4CC4)[nH]n3)n2)cc(N2CCCCC2)n1`: the cytotoxicity at 70.5 h was -0.746%. Turning to `CCN(CC(F)(F)F)C(=O)C1CCCN(Cc2ccno2)C1` (centres undefined), the cytotoxicity at 70.5 h was -7.36%.

On to `CCc1cnc(CN(C)C(=O)NC2CCN(C)C2=O)s1` (centres undefined), for which the cytotoxicity at 70.5 h was -7.59%. As to `COC(=O)N1CCN(Cc2ccccc2C(C)(C)C#N)CC1`, the cytotoxicity at 70.5 h is -5.92%. As for `CCc1ccc(C2COCCN2C(=O)Nc2ccc(C#N)cc2)o1` (centres undefined), the cytotoxicity at 70.5 h was 47.1%. To `CCN(CC)Cc1ccc(CNC(=O)C(C)(C)n2cc(Br)cn2)cc1` belongs 15.4%; to `O=C(CS(=O)(=O)Cc1nnnn1C1CC1)NCCc1ccccc1`, -3.81%. With `O=C(CS(=O)(=O)Cc1nnnn1C1CC1)NCC1CC1`, the cytotoxicity at 70.5 h was -4.04%.

On to `O=C(NCc1ccccc1CN1CCOCC1)Nc1nncs1`, for which the cytotoxicity at 70.5 h amounted to 11%.

In the case of `O=C(NCCn1ccnc1)C1(c2ccc3c(c2)OCCO3)CCCC1`, the cytotoxicity at 70.5 h was -12%. Then `O=C(NCc1ccccc1CN1CCCCC1)Nc1nncs1`, with -10.2%.

For `CC(Cn1ccnc1)NS(=O)(=O)c1ccc(F)c(Cl)c1` (centres undefined), the cytotoxicity at 70.5 h was -1.84%. To `CN(C1CCN(c2ccccn2)CC1)S(=O)(=O)c1ccccc1F` belongs -3.26%. To `CN(C1CCN(c2ccccn2)CC1)S(=O)(=O)c1cccc(F)c1` belongs 2.86%. Turning to `O=c1[nH]c(CCN2CCN(CC(F)(F)F)CC2)nc2ccccc12`, the cytotoxicity at 70.5 h was -4.17%.

As to `CCOCCN1CCN(CCc2nc3ccccc3c(=O)[nH]2)CC1`, the cytotoxicity at 70.5 h came to 1.75%.

For the compound `COCc1ccccc1C(=O)N1CCN(C2=NCC(C)(C)S2)CC1`, the cytotoxicity at 70.5 h was -5.17%. To `CC(C)c1nn(C)cc1CNCc1cccnc1N(C)C` belongs 2.18%; to `CC(C)c1nn(C)cc1CNCc1ccnc(N(C)C)c1`, -7.83%. Then `Cc1n[nH]cc1CNCC(O)c1ccc(F)c(F)c1` (centres undefined), with -7.55%.
